Test results reported in ChEMBL document CHEMBL1147587, “Synthesis of 7'-[123I]iodo-D-luciferin for in vivo studies of firefly luciferase gene expression” (Bioorg Med Chem Lett, 2004).

Tested on: Lampyridae
Description: Michaelis-Menten constant for binding affinity towards firefly luciferase

- Km: 4.28 µM
Structure (SMILES): O=C(O)[C@H]1CSC(c2nc3ccc(O)c(I)c3s2)=N1
